What was measured:
Format in all cases: cell-based, human
OVCAR-8 = tested on: OVCAR-8
Protocol: (§1) (aR)-6, (aS)-6, (aS)-iso -6, and (aR)-iso -6 were submitted to the 60 Cell Screen panel and evaluated at 5 doses (100 μM, 10 μM, 1 μM, 0.1 μM, and 0.01 μM). […] The complete report from this submission is available at the publisher’s Web site as a separate Supporting Information file. For COMPARE analysis, TGI levels of response for (aR)-DM-MTC (6) and (aS)-iso-DM-MTC were compared to those of several established tubulin inhibitors previously tested in the NCI-60 screen.

MALME-3M = tested on: MALME-3M
Protocol: as §1

CAKI-1 = tested on: CAKI-1
Protocol: as §1

NCI 60 cell lines = tested on: NCI 60 cell lines
Protocol: as §1

T-47D = tested on: T-47D
Protocol: as §1

U251 = tested on: U251
Protocol: as §1

SK-MEL-5 = tested on: SK-MEL-5
Protocol: as §1

UACC-257 = tested on: UACC-257
Protocol: as §1

ACHN = tested on: ACHN
Protocol: as §1

MDA-MB-468 = tested on: MDA-MB-468
Protocol: as §1

NCI-H23 = tested on: NCI-H23
Protocol: as §1

RPMI-8226 = tested on: RPMI-8226
Protocol: as §1

HCC-2998 = tested on: HCC-2998
Protocol: as §1

MCF7 = tested on: MCF7
Protocol: as §1

SK-MEL-2 = tested on: SK-MEL-2
Protocol: as §1

OVCAR-4 = tested on: OVCAR-4
Protocol: as §1

NCI-H226 = tested on: NCI-H226
Protocol: as §1

LOX IMVI = tested on: LOX IMVI
Protocol: as §1

786-0 = tested on: 786-0
Protocol: as §1

MDA-MB-435 = tested on: MDA-MB-435
Protocol: as §1

HOP-92 = tested on: HOP-92
Protocol: as §1

NCI/ADR-RES = tested on: NCI/ADR-RES
Protocol: as §1

SN12C = tested on: SN12C
Protocol: as §1

SNB-19 = tested on: SNB-19
Protocol: as §1

MDA-MB-231/ATCC = tested on: MDA-MB-231/ATCC
Protocol: as §1

HL-60(TB) = tested on: HL-60(TB)
Protocol: as §1

COc1cc(C)c(-c2ccc(=O)c(OC)cc2C)c(OC)c1OC (single isomer, unassigned) [(aR)-iso-6]
Log10GI50 (OVCAR-8): > -4.00 Molar | Log10LC50 (OVCAR-8): > -4.00 Molar | Log10TGI (OVCAR-8): > -4.00 Molar | Log10GI50 (MALME-3M): > -4.00 Molar | Log10LC50 (MALME-3M): > -4.00 Molar | Log10TGI (MALME-3M): > -4.00 Molar | Log10GI50 (CAKI-1): > -4.00 Molar | Log10LC50 (CAKI-1): > -4.00 Molar | Log10TGI (CAKI-1): > -4.00 Molar | cytotoxicity at the highest concentration tested (NCI 60 cell lines; 100 μM): not cytotoxic | Log10 Range at TGI (NCI 60 cell lines; NCI-60 cell line selectivity): 0 | GI50 (NCI 60 cell lines; NCI-60 mean): > 100 µM | Mean TGI (NCI 60 cell lines; NCI-60 mean total growth inhibition): > 100 µM | Delta Log10LC50 (NCI 60 cell lines; mean graph): 0 | Delta Log10TGI (NCI 60 cell lines; mean graph): 0 | _MID Log10GI50 (NCI 60 cell lines; mean graph midpoint): -4.01 Molar | _MID Log10LC50 (NCI 60 cell lines; mean graph midpoint): -4.0 Molar | _MID Log10TGI (NCI 60 cell lines; mean graph midpoint): -4.0 Molar | Log10GI50 (T-47D): > -4.00 Molar | Log10LC50 (T-47D): > -4.00 Molar | Log10TGI (T-47D): > -4.00 Molar | Log10GI50 (U251): > -4.00 Molar | Log10LC50 (U251): > -4.00 Molar | Log10TGI (U251): > -4.00 Molar | Log10GI50 (SK-MEL-5): > -4.00 Molar | Log10LC50 (SK-MEL-5): > -4.00 Molar | Log10TGI (SK-MEL-5): > -4.00 Molar | Log10GI50 (UACC-257): > -4.00 Molar | Log10LC50 (UACC-257): > -4.00 Molar | Log10TGI (UACC-257): > -4.00 Molar | Log10GI50 (ACHN): > -4.00 Molar | Log10LC50 (ACHN): > -4.00 Molar | Log10TGI (ACHN): > -4.00 Molar | Log10GI50 (MDA-MB-468): > -4.00 Molar | Log10LC50 (MDA-MB-468): > -4.00 Molar | Log10TGI (MDA-MB-468): > -4.00 Molar | Log10GI50 (NCI-H23): > -4.00 Molar | Log10LC50 (NCI-H23): > -4.00 Molar | Log10TGI (NCI-H23): > -4.00 Molar | Log10GI50 (RPMI-8226): > -4.00 Molar | Log10LC50 (RPMI-8226): > -4.00 Molar | Log10TGI (RPMI-8226): > -4.00 Molar | Log10GI50 (HCC-2998): > -4.00 Molar | Log10LC50 (HCC-2998): > -4.00 Molar | Log10TGI (HCC-2998): > -4.00 Molar | Log10GI50 (MCF7): > -4.00 Molar | Log10LC50 (MCF7): > -4.00 Molar | Log10TGI (MCF7): > -4.00 Molar | Log10GI50 (SK-MEL-2): > -4.00 Molar | Log10LC50 (SK-MEL-2): > -4.00 Molar | Log10TGI (SK-MEL-2): > -4.00 Molar | Log10GI50 (OVCAR-4): > -4.00 Molar | Log10LC50 (OVCAR-4): > -4.00 Molar | Log10TGI (OVCAR-4): > -4.00 Molar | Log10GI50 (NCI-H226): > -4.00 Molar | Log10LC50 (NCI-H226): > -4.00 Molar | Log10TGI (NCI-H226): > -4.00 Molar | Log10GI50 (LOX IMVI): > -4.00 Molar | Log10LC50 (LOX IMVI): > -4.00 Molar | Log10TGI (LOX IMVI): > -4.00 Molar | Log10GI50 (786-0): > -4.00 Molar | Log10LC50 (786-0): > -4.00 Molar | Log10TGI (786-0): > -4.00 Molar | Log10GI50 (MDA-MB-435): > -4.00 Molar | Log10LC50 (MDA-MB-435): > -4.00 Molar | Log10TGI (MDA-MB-435): > -4.00 Molar | Log10GI50 (HOP-92): > -4.00 Molar | Log10LC50 (HOP-92): > -4.00 Molar | Log10TGI (HOP-92): > -4.00 Molar | Log10GI50 (NCI/ADR-RES): > -4.00 Molar | Log10LC50 (NCI/ADR-RES): > -4.00 Molar | Log10TGI (NCI/ADR-RES): > -4.00 Molar | Log10GI50 (SN12C): > -4.00 Molar | Log10LC50 (SN12C): > -4.00 Molar | Log10TGI (SN12C): > -4.00 Molar | Log10GI50 (SNB-19): > -4.00 Molar | Log10LC50 (SNB-19): > -4.00 Molar | Log10TGI (SNB-19): > -4.00 Molar | Log10GI50 (MDA-MB-231/ATCC): > -4.00 Molar | Log10LC50 (MDA-MB-231/ATCC): > -4.00 Molar | Log10TGI (MDA-MB-231/ATCC): > -4.00 Molar | Log10GI50 (HL-60(TB)): > -4.00 Molar | Log10LC50 (HL-60(TB)): > -4.00 Molar | Log10TGI (HL-60(TB)): > -4.00 Molar

Source: PMC12150326 (The Journal of Organic Chemistry, 2025)
